Series [1] can be described thus: Equilibrium solubility in pH 7.0 phosphate buffer by LC/MS method. Type of series: physicochemical.
Series [2] concerns the target T1, Cathepsin S (Homo sapiens, UniProt P25774). The series can be described thus: Inhibition of cathepsin S in human JY cells assessed as invariant chain-li degradation. Type of series: cell-based.
The target of series [3] is T1, Cathepsin S. The series can be described thus: Inhibition of human cathepsin S.
Series [4] deals with Voltage-gated inwardly rectifying potassium channel KCNH2 (Homo sapiens, UniProt Q12809). The experiment in a line: Inhibition of human ERG by patch clamp assay.

Structures are written as SMILES. pIC50: −log10 of the molar value. Values after ≈ are worked out from the molar mass of the structure shown.

T1 sequence (P25774 whole entry): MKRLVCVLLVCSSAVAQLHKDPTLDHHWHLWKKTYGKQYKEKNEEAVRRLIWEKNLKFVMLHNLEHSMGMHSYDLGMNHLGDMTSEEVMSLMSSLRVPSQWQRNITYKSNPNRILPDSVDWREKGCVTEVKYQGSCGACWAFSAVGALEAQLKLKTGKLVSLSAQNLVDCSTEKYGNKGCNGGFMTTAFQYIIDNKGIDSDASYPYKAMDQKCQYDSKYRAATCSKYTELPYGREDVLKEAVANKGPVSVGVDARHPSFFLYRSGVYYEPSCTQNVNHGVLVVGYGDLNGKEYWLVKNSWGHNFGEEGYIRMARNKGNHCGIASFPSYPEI
Voltage-gated inwardly rectifying potassium channel KCNH2, sequence (Q12809 whole entry): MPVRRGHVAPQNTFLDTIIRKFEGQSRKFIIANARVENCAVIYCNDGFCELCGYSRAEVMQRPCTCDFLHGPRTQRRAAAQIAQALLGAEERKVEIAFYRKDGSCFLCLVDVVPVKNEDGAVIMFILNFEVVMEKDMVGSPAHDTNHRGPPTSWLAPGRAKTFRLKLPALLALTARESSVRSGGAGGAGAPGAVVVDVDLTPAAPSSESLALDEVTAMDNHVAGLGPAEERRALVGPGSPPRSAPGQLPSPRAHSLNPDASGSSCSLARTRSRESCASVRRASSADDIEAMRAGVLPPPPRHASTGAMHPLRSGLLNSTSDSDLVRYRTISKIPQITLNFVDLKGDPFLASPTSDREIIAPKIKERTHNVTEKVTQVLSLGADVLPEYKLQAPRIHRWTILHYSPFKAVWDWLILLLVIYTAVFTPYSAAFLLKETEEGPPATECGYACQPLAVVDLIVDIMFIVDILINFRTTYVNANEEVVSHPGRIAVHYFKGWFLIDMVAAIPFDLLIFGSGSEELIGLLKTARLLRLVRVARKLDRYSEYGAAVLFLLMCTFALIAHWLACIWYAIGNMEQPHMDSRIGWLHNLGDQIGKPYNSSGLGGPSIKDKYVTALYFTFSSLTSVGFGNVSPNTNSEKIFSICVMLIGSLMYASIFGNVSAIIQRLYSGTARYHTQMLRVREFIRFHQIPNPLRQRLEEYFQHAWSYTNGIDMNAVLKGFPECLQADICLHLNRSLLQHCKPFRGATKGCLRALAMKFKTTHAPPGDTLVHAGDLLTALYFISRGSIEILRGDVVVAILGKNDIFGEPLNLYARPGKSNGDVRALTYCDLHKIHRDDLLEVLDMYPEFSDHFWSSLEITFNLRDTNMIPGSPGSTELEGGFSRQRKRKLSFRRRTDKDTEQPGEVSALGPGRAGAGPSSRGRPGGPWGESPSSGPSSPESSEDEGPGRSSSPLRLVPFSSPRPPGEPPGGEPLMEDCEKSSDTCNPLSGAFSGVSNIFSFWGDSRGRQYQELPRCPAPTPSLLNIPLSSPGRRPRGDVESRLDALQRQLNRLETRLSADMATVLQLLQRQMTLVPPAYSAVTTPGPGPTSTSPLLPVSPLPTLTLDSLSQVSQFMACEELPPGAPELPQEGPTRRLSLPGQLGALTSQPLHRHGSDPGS

With `NC(=O)C(=O)N1CCc2c(c(-c3ccc(C(F)(F)F)c(SCCN4CCC(F)CC4)c3)nn2C[C@@H](O)CN2CCCCC2)C1`, the solubility (thermodynamic) in series [1] was below 1 µM.

In turn, `NC(=O)N1CCc2c(c(-c3ccc(Cl)c(C#Cc4ccc(Cl)c(C(=O)N5CCNCC5)c4)c3)nn2CCCN2CCSCC2)C1` came in with a thermodynamic solubility in series [1] of 66 µM (≈ 44 µg/mL). For the same compound, the negative logarithm of the IC50 (pIC50) at Cathepsin S [2] was 6.20.

In the case of `NC(=O)C(=O)N1CCc2c(c(-c3ccc(Cl)c(C#Cc4ccc(CNCc5ccc(Cl)cc5)cc4)c3)nn2CCCN2CCN(c3ccccc3)CC2)C1`, in series [1], the thermodynamic solubility was below 1 µM. The negative logarithm of the IC50 (pIC50) against Cathepsin S [3] was 8.00; at Cathepsin S [2] it was 6.25.

The compound `NC(=O)N1CCc2c(c(-c3ccc(Cl)c(C#Cc4ccc(CNCc5ccc(Cl)cc5)cc4)c3)nn2CCCN2CCSCC2)C1` had a thermodynamic solubility in series [1] below 1 µM. Further, the negative-log IC50 (pIC50) is 7.15 on Cathepsin S [3] and 6.06 on Cathepsin S [2]. Also, the “inhibition (INH)” value in series [4] is “Not Active”.

In series [1], `NC(=O)C(=O)N1CCc2c(c(-c3ccc(Cl)c(C#Cc4ccc(CNCc5ccc(Cl)cc5)cc4)c3)nn2CCCN2CCSCC2)C1` showed a solubility (thermodynamic) below 1 µM. On Cathepsin S [2], the negative logarithm of the IC50 (pIC50) is 6.57.

As for `C[C@@H]1COCCN1CCCn1nc(-c2ccc(Cl)c(C#Cc3ccc(CNCc4ccc(Cl)cc4)cc3)c2)c2c1CCN(C(N)=O)C2`, the solubility (thermodynamic) in series [1] stood at 3 µM (≈ 2.02 µg/mL). Moreover, the pIC50 against Cathepsin S [3] is 6.96; on Cathepsin S [2], 5.81.

For the compound `C[C@@H]1COCCN1CCCn1nc(-c2ccc(Cl)c(C#Cc3ccc(CNCc4ccc(Cl)cc4)cc3)c2)c2c1CCN(C(=O)C(N)=O)C2`, the thermodynamic solubility in series [1] is below 1 µM. Also, the pIC50 against Cathepsin S [3] is 7.30; on Cathepsin S [2] it was 6.02. In addition, the “inhibition (INH)” value in series [4] is on record as “Not Active”.

Turning to `NC(=O)N1CCc2c(c(-c3ccc(Cl)c(C#Cc4ccc(C(=O)NCc5ccc(Cl)cc5)cc4)c3)nn2CCCN2CCSCC2)C1`, at Cathepsin S [2], the negative-log IC50 (pIC50) is below 5.00.

Take `NC(=O)N1CCc2c(c(-c3ccc(Cl)c(C#Cc4ccc(C(=O)NCc5cccnc5)cc4)c3)nn2CCCN2CCSCC2)C1`: the negative-log IC50 (pIC50) on Cathepsin S [2] is below 5.00.

Turning to `NC(=O)N1CCc2c(c(-c3ccc(Cl)c(C#Cc4ccc(C(=O)NC[C@@H]5CCCN5)cc4)c3)nn2CCCN2CCSCC2)C1`, the thermodynamic solubility in series [1] came out at 81 µM (≈ 52.3 µg/mL). In addition, the pIC50 at Cathepsin S [2] is below 5.00.

Turning to `NC(=O)N1CCc2c(c(-c3ccc(Cl)c(C#Cc4ccc(COCc5cccnc5)cc4)c3)nn2CCCN2CCSCC2)C1`, the negative-log IC50 (pIC50) at Cathepsin S [2] is below 5.00.

For the compound `NC(=O)N1CCc2c(c(-c3ccc(Cl)c(C#Cc4ccc(Cl)c(C(=O)NC[C@@H]5CCCN5)c4)c3)nn2CCCN2CCSCC2)C1`, in series [1], the thermodynamic solubility came out at 175 µM (≈ 119 µg/mL). For the same compound, on Cathepsin S [2], the pIC50 was 6.21.

`NC(=O)N1CCc2c(c(-c3ccc(Cl)c(C#Cc4ccc(Cl)c(C(=O)NCCN5CCOCC5)c4)c3)nn2CCCN2CCSCC2)C1`: in series [1], the solubility (thermodynamic) is 9 µM (≈ 6.4 µg/mL). The pIC50 on Cathepsin S [2] is 6.21.

Turning to `CN(C)S(=O)(=O)N1CCc2c(c(-c3ccc(Cl)c(C#Cc4ccc(CNCc5ccc(Cl)cc5)cc4)c3)nn2CCCN2CCOCC2)C1`, on Cathepsin S [2], the pIC50 was 5.30.

On to `CC(=O)NCC(=O)N1CCc2c(c(-c3ccc(Cl)c(C#Cc4ccc(CNCc5ccc(Cl)cc5)cc4)c3)nn2CCCN2CCOCC2)C1`, for which the negative logarithm of the IC50 (pIC50) at Cathepsin S [2] is 5.96.

As to `NC(=O)C(=O)N1CCc2c(c(-c3ccc(Cl)c(C#Cc4ccc(CNCc5ccc(Cl)cc5)cc4)c3)nn2CCCN2CCOCC2)C1`, the thermodynamic solubility in series [1] was below 1 µM. Also, the pIC50 against Cathepsin S [3] was 7.22; at Cathepsin S [2], 6.29.

Turning to `CN(C)C(=O)C(=O)N1CCc2c(c(-c3ccc(Cl)c(C#Cc4ccc(CNCc5ccc(Cl)cc5)cc4)c3)nn2CCCN2CCOCC2)C1`, in series [1], the solubility (thermodynamic) was below 1 µM. Further, the pIC50 at Cathepsin S [2] was 5.76.

Consider `NC(=O)N1CCc2c(c(-c3ccc(Cl)c(C#Cc4ccc(CNCc5ccc(Cl)cc5)cc4)c3)nn2CCCN2CCCCC2)C1`, for which the pIC50 on Cathepsin S [2] was 6.70.

On to `NC(=O)C(=O)N1CCc2c(c(-c3ccc(Cl)c(C#Cc4ccc(CNCc5ccc(Cl)cc5)cc4)c3)nn2CCCN2CCCCC2)C1`, for which, on Cathepsin S [2], the negative logarithm of the IC50 (pIC50) is 6.52.

In turn, `NC(=O)N1CCc2c(c(-c3ccc(Cl)c(C#Cc4ccc(CNCc5ccc(Cl)cc5)cc4)c3)nn2CCCN2CCC(C(F)(F)F)CC2)C1` displayed a thermodynamic solubility in series [1] below 1 µM. Also, the negative logarithm of the IC50 (pIC50) against Cathepsin S [3] is 7.22; at Cathepsin S [2], 6.16.

In series [1], `NC(=O)C(=O)N1CCc2c(c(-c3ccc(Cl)c(C#Cc4ccc(CNCc5ccc(Cl)cc5)cc4)c3)nn2CCCN2CCC(C(F)(F)F)CC2)C1` yielded a solubility (thermodynamic) below 1 µM. Also, the negative logarithm of the IC50 (pIC50) at Cathepsin S [2] is 5.75.

With `NC(=O)N1CCc2c(c(-c3ccc(Cl)c(C#Cc4ccc(CNCc5ccc(Cl)cc5)cc4)c3)nn2CCCN2CCN(c3ccccc3)CC2)C1`, on Cathepsin S [2], the pIC50 was 6.15.

Turning to `NC(=O)N1CCc2c(c(-c3ccc(Cl)c(C#Cc4ccc(CNCc5ccc(Cl)cc5)cc4)c3)nn2CCCN2CCOCC2)C1`, the negative logarithm of the IC50 (pIC50) on Cathepsin S [2] was 6.36.

In series [1], `CS(=O)(=O)N1CCc2c(c(-c3ccc(Cl)c(C#Cc4ccc(CNCc5ccc(Cl)cc5)cc4)c3)nn2CCCN2CCOCC2)C1` displayed a solubility (thermodynamic) below 1 µM.

`NC(=O)N1CCc2c(c(-c3ccc(Cl)c(C#Cc4ccc(COCC5CNCCO5)cc4)c3)nn2CCCN2CCSCC2)C1` (racemic) yielded a thermodynamic solubility in series [1] of 46 µM (≈ 29.9 µg/mL). In addition, the pIC50 on Cathepsin S [2] is below 5.00.

With `NC(=O)N1CCc2c(c(-c3ccc(Cl)c(C#Cc4ccc(Cl)c(C(=O)NCC5CCCNC5)c4)c3)nn2CCCN2CCSCC2)C1` (racemic), on Cathepsin S [2], the pIC50 was 6.29.

Values taken from ChEMBL document CHEMBL2311389, “Pyrazole-based arylalkyne cathepsin S inhibitors. Part III: modification of P4 region” (Bioorg Med Chem Lett, 2013).
